Assay results taken from patent US20150309047A1, “CIRCULATING PROTEOLYTIC BIOMARKERS OF CELL DEATH AND METHODS FOR THE USE THEREOF” (The Regents of the University of California, priority 2014, published 2015).
Residues, ends and D or L forms follow the SMILES beside them. *: point of attachment. Cbz = O=C(OCc1ccccc1)*; CH2F = FC*

How the values were obtained:
Type in all cases: cell-based, human
Jurkat cells [1] = assay: Immunoblotting of caspase substrate proteolysis during apoptosis in Jurkat cells
Protocol: Jurkat cells at a density of 1×10^6 cells/ml were treated with etoposide (50 μM) for 0, 2, 4, 8, 12, and 24 hours prior to harvesting. Harvested cells were pelleted at 2,000×g and 25° C. for 5 minutes, washed twice with phosphate buffered saline, and lysed at a concentration of 2×10^7 cells/ml in 1.0% SDS, phosphate buffered saline, 100 μM Z-VAD-FMK, 100 μM E-64, 1 mM PMSF, 1 mM AEBSF, 5 mM EDTA, and 10 mM sodium butyrate. Whole cell lysates were sonicated to shear genomic DNA, normalized to a protein concentration of approximately 2 mg/ml, as determined by BCA assay (Pierce). Cell lysates for each apoptotic timepoint were then analyzed by SDS-PAGE and Western blot. Mouse monoclonal anti-caspase-3 (#9668) and rabbit polyclonal anti-HDAC3 (#2632) antibodies were purchased from Cell Signaling Technology. Mouse monoclonal anti-DFF45 (#611036) antibody was purchased from BD Transduction Laboratories. Goat polyclonal anti-N-Cor (#sc-1611) and rabbit polyclonal anti-HDAC7 (#sc-11412) antibodies were purchased from Santa Cruz Biotechnology. Rabbit polyclonal anti-TBLR1 (#A300-408A), rabbit polyclonal anti-SHARP (#A301-119A), and rabbit polyclonal anti-RBBP7 (#A300-959A) antibodies were purchased from Bethyl Laboratories. Rabbit polyclonal anti-SMRTe (#06-891) antibody was purchased from Millipore. Western blots were imaged using SuperSignal West Femto Substrate (Pierce) with a FluorChem SP imager (Alpha Innotech). DNA fragmentation of whole cell DNA was analyzed by agarose gel with the Apoptotic DNA Ladder Kit (Roche).

MM1.S = assay: N-terminal labeling and MS of proteolytic fragments released into media from drug-treated cultured cells; details: MM1.S treated with bortezomib for at least 21 h
Protocol: (§1) MM1.S and SU-DHL-8 lines were obtained from ATCC; MOLM-13 from DMSZ. Cell lines were grown in RPMI-1640 media without fetal bovine serum for 24 h prior to drug treatment at indicated doses. After treatment, cells and debris were separated from media by low speed (800×g, 5 min), followed by high speed (24,000×g, 1 h) centrifugation. Total protein in media was precipitated with trichloroacetic acid, resuspended in 8M guanidine HCl, then subjected to N-terminal labeling as described (Wiita A P, et al. (2013) Global cellular response to chemotherapy-induced apoptosis. Elife 2:e01236).
(§2) Three cell lines treated with different drugs were evaluated: i) MM1.S, derived from multiple myeloma and treated with the proteasome inhibitor bortezomib, ii) MOLM-13, derived from acute myeloid leukemia and treated with the nucleoside analog cytarabine, and iii) SU-DHL-8, derived from diffuse large B-cell lymphoma and treated with the DNA-damaging agent doxorubicin. All of these conditions reflect the diagnoses of patients in the discovery cohort combined with clinically used chemotherapeutics. Under each condition the cells were either treated with drug or mock-treated for at least 21 h. […] After removing whole cells, proteins in the media were precipitated with trichloroacetic acid and then subjected to N-terminal labeling by subtiligase. FBS-free media was used in these experiments to avoid contamination from normal bovine plasma proteins.

MOLM-13 = assay: as above; details: MOLM-13 treated with cytarabine for at least 21 h
Protocol: as §1, §2

SU-DHL-8 = assay: as above; details: SU-DHL-8 treated with doxorubicin for at least 21 h
Protocol: as §1, §2

Jurkat cells [2] = assay: Subtiligase N-terminal labeling and LC/MS/MS degradomic analysis of etoposide-treated apoptotic Jurkat cells; details: Jurkat cells treated with etoposide
Protocol: Jurkat clone E6-1 (ATCC) cells were grown in RPMI-1640 supplemented with 10% fetal bovine serum, sodium pyruvate, and antibiotics. Normal cells were harvested for experiments at a density of 1×10^6 cells/ml. For apoptotic samples, cells at a density of 1×10^6 cells/ml were treated with etoposide (50 μM) for 12 hours prior to harvesting. Harvested cells (0.1 to 1 billion) were pelleted at 2,000×g and 25° C. for 5 minutes, washed twice with phosphate buffered saline, and lysed at a typical concentration of 2×10^8 cells/ml in 1.0% Triton X-100, 100 mM BICINE pH 8.0, 100 μM Z-VAD-FMK, 100 μM E-64, 1 mM PMSF, 1 mM AEBSF, and 5 mM EDTA. Cell lysates were incubated at room temperature for 1 hour to allow complete inhibition of endogenous protease and esterase activity, and centrifuged at 21,000×g and 4° C. for 15 minutes to pellet insoluble material. Clarified supernatant was immediately used in ligation reactions at a protein concentration of approximately 20 mg/ml, as determined by Bradford assay (Bio-Rad).
Subtiligase (1 μM), biotinylated peptide ester (1 mM), and DTT (2 mM) were added to either control or apoptotic cell lysate. Ligation reactions were typically left to proceed at room temperature for 60 minutes. […]

[3] = Jurkat cells, 50 μM etoposide, immunoblot

In the case of `COC(=O)C[C@H](NC(=O)[C@H](C)NC(=O)[C@@H](NC(=O)OCc1ccccc1)C(C)C)C(=O)CF` [Z-VAD(OMe)-fmk] (Cbz-Val-Ala-Asp(OMe)-CH2F), the “cleavage of representative substrates HDAC7, Ku80, RCOR2, TBLR1, and UBP36” value (Jurkat cells [1]; etoposide-treated Jurkat cells with caspase inhibitor) is reported as “blocked”.

With `CC(C)C[C@H](NC(=O)[C@H](Cc1ccccc1)NC(=O)c1cnccn1)B(O)O` [bortezomib] the “apoptosis of treated cells” value (MM1.S) was “at least 50%”.

In the case of `Nc1ccn([C@@H]2O[C@H](CO)[C@@H](O)[C@@H]2O)c(=O)n1` [cytarabine], the “apoptosis of treated cells” value (MOLM-13) is reported as “at least 50%”.

In the case of `COc1cccc2c1C(=O)c1c(O)c3c(c(O)c1C2=O)C[C@@](O)(C(=O)CO)C[C@@H]3O[C@H]1C[C@H](N)[C@H](O)[C@H](C)O1` [doxorubicin], the “apoptosis of treated cells” value (SU-DHL-8) is reported as “at least 50%”.

`COc1cc([C@@H]2c3cc4c(cc3[C@@H](O[C@@H]3O[C@@H]5CO[C@@H](C)O[C@H]5[C@H](O)[C@H]3O)[C@H]3COC(=O)[C@H]23)OCO4)cc(OC)c1O` [etoposide] was tested, and the “N-termini identified in apoptotic cells derived from P1 aspartate cleavages” value (Jurkat cells [2]; large-scale (2D LC/MS/MS) experiments) was 43%, the “N-termini identified in apoptotic cells derived from P1 aspartate cleavages” value (Jurkat cells [2]; small-scale (1D LC/MS/MS) experiments) was 43% and the “proteolysis of CM, Ku80, LCOR, and RBBP7 (time courses)” value (Jurkat cells [1]; [3]) was “partial cleavage”. For the same compound, the “proteolysis of HDAC6, HDAC7, N-CoR, RCOR2, SHARP, TBLR1, UBPS, and UBP36 (time courses)” value (Jurkat cells [1]; [3]) was “full cleavage”.
